These are literature values, as cited in patent publication US7375097B2, “Increasing ATP availability by inhibition of creatine kinase (CK) leakage resulting from high-intensity exercise” (Aplodan Formulations Ltd., priority 2006, dated 2008).

Read-outs that look alike come from different tables or passages of the source.

For data set [1] the following is noted: in vivo.
The subject of data set [2] is patients with inadequate coronary blood flow.
The conditions of data set [3]: oral administration, test animals, up to about, at 48 hours.
The conditions of data set [4]: in vivo. The source holds these as a separate data set.
The test system of another data set is hand-grip strength. To be noted: unaffected in the placebo group.
The subject of data set [5] is serum CK levels increased by isoprenaline. To be noted: rats; CK increased by administration of isoprenaline.
For data set [6] the following is noted: in vitro.
The conditions of data set [7]: alkaline and acidic solutions.
The test system of data set [8] is leakage of CK in acute myocardial infarction. To be noted: human patients suffering from acute myocardial infarction.
In data set [9] the test system is models of myocardial infarction.
The subject of data set [10] is skeletal muscle performance. As to conditions: clinical trials.

As to `CN(CCOP(=O)(O)O)C(=N)N` [2-(carbamimidoyl-methyl-amino)ethoxyphosphonic acid], the cardioprotection result in data set [1] was “afford cardioprotection”. For the same compound, the cardiac parameters result in data set [2] is “improve cardiac parameters”. Moreover, the “absorption by the intestine” value in data set [3] is recorded as “about 60%”. Moreover, the “tolerability / side effects” value in data set [4] is “well tolerated and without side effects”. Also, in the data set on hand-grip strength, the hand-grip strength result is given as “hand-grip strength was improved”. Also, in the data set on elderly subjects, the muscular performance result was “improved muscular performance”. Further, in data set [5], the “serum CK levels” value is listed as “reduce serum CK levels”. In addition, the dephosphorylation to creatine entry in data set [6] (blood and muscle) is listed as “less so”; in data set [6] (kidney, intestine and liver), “dephosphorylated to creatine to some degree”. Besides, the stability in solution result in data set [7] was “stable in both alkaline and acidic solutions”. Moreover, the “leakage of CK and several other enzymes” value in data set [8] is recorded as “reduce the leakage of CK as well as several other enzymes”. Also, the “protection against cellular necrosis” value in data set [9] is reported as “protective against cellular necrosis”. In data set [10], the “capacity to perform physical activity” value was “increase the capacity to perform physical activity”. The muscular development entry in data set [10] is recorded as “improve muscular development”.
